# Calls of active or inactive are those of the source. The calls are words filed in the database; no cut-off is given here.
# Legend:
# Estrogen receptor [1] = molecular target: T1, Estrogen receptor (Homo sapiens, UniProt P03372); assay: Displacement of Fluormone ES2 from human recombinant full length untagged-ERalpha by fluorescence polarization competition binding assay
# T1 sequence (P03372 whole entry): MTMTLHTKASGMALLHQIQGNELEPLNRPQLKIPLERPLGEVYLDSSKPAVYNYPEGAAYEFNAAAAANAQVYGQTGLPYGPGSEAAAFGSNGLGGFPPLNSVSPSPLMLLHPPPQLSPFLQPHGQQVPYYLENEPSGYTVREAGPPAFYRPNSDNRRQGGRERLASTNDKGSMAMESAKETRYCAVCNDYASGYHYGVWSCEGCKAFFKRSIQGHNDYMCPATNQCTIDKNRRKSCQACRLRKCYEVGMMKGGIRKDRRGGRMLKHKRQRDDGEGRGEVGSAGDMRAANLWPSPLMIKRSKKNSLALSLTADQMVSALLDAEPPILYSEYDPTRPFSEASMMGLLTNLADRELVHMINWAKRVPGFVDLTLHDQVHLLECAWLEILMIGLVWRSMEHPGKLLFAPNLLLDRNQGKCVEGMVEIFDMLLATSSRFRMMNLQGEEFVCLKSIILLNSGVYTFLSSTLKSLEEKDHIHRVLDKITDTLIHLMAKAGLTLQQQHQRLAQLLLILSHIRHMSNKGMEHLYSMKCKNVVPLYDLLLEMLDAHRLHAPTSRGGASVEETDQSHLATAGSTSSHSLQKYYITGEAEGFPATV
# [2] = molecular target: T2, Estrogen receptor (Homo sapiens) (UniProt P03372); assay: Down regulation of ERalpha in human MCF7 cells after 6 hrs in presence of 10 uM proteasome inhibitor MG132 by Western blot analysis; format: cell-based
# T2 sequence (whole entry): T1 sequence (P03372 whole entry)
# [3] = molecular target: T2, Estrogen receptor (Homo sapiens); assay: Down regulation of ERalpha in human MCF7 cells at 10 uM after 6 hrs by Western blot analysis in absence of MG132
# Estrogen receptor [4] = molecular target: T1, Estrogen receptor; assay: Antagonist activity at ERalpha (unknown origin) transfected in 17beta-estradiol induced-HEK293 cells assessed as inhibition of estradiol-mediated protein transcriptional activity after 16 to 20 hrs by Luciferase reporter gene assay
SMILES,IC50 (Estrogen receptor [1]),Activity [2],Activity [3],IC50 (Estrogen receptor [4])
CCCCCCCCCCCCCCNCCOc1ccc(C(=O)c2c(-c3ccc(O)cc3)sc3cc(O)ccc23)cc1,28 nM,,,
CCCCCCCCNCCOc1ccc(C(=O)c2c(-c3ccc(O)cc3)sc3cc(O)ccc23)cc1,49 nM,,,
CCCCCCCCCCCCNCCOc1ccc(C(=O)c2c(-c3ccc(O)cc3)sc3cc(O)ccc23)cc1,5.9 nM,inactive,Dose-dependent effect,0.09 nM
CCCCCCNCCOc1ccc(C(=O)c2c(-c3ccc(O)cc3)sc3cc(O)ccc23)cc1,61 nM,,,
CCCCCCCCCCCCCCCCCCNCCOc1ccc(C(=O)c2c(-c3ccc(O)cc3)sc3cc(O)ccc23)cc1,1.8 nM,,,
CCCCCCCCCCNCCOc1ccc(C(=O)c2c(-c3ccc(O)cc3)sc3cc(O)ccc23)cc1,40 nM,inactive,Dose-dependent effect,0.68 nM
CCCCCCCCCCCCCCCCNCCOc1ccc(C(=O)c2c(-c3ccc(O)cc3)sc3cc(O)ccc23)cc1,11 nM,,,
